Measurements published in patent US6914045B2, “Glycopeptide antibiotics” (Wyeth Holdings Corporation, priority 2001, dated 2005).
Values after ≈ are worked out from the molar mass of the structure shown.

Legend:
Test in all cases: in vitro antibacterial evaluation, MIC by broth dilution
Assay type in all cases: cell-based
[1] = tested on: Enterococcus sp.; conditions: broth dilution, 18 hours at 35° C.; for MIC Enterococcus faecalis (GC 2242): strain GC 2242; for MIC Enterococcus faecalis (GC 4552): strain GC 4552
Procedure, shortened: (§1)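 MIC = lowest antibiotic concentration preventing visible growth; inoculum 5×10^5 CFU/mL; drug range 64-0.06 μg/mL; Muller-Hinton II […]; NCCLS M7-A2 guidance.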

[2] = tested on: Escherichia coli; conditions: 18 hours at 35° C.
Procedure, shortened: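 Following National Committee for Clinical Laboratory Standards recommendations (M7-A2), susceptibility was measured by dilution in Muller-Hinton II […]. Bacteria were seeded at 5×10^5 CFU/mL against compound concentrations from 64 down to 0.06 μg/mL.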

[3] = tested on: Staphylococcus sp.; conditions: broth dilution, 18 hours at 35° C.
Procedure, shortened: as §1

[4] = tested on: Streptococcus sp.; conditions: broth dilution, 18 hours at 35° C.; for MIC Streptococcus agalactiae (GC 4564): strain GC 4564; for MIC Streptococcus pyogenes (ID-3187): strain ID-3187
Procedure, shortened: as §1

[5] = Enterococcus faecalis (ATCC 29212)
[6] = Enterococcus faecalis (GC 4553)
[7] = Enterococcus faecalis (GC 4554)

## CC(C)CCC(=O)OC1C(OC2C(CO)OC(Oc3ccc(CC4NC(=O)C(C(C)c5ccccc5)NC(=O)CNC(=O)C(CO)NC(=O)C(C(O)C5CNC(=N)N5C5OC(CO)C(O)C(O)C5O)NC(=O)C(C(O)C5CNC(=N)N5)NC4=O)cc3)C(O)C2O)OC(CO)C(O)C1O (stereo not drawn) [Example 270a, Cyclo[glycyl-β-methylphenylalanyl-O-[4-O-[2-O-(4-methylventanovl)hexopyranosyl]-hexopyranosyl]tyrosyl-3-(2-iminoimidazolidin-4-yl)seryl-3-(3-hexopyranosyl-2-iminoimidazolidin-4-yl)serylseryl]]
[1]; Enterococcus avium (GC 4558)
  MIC Enterococcus avium (GC 4558): 16 µg/mL (≈ 11.5 µM)
[1]; [5]
  MIC Enterococcus faecalis (ATCC 29212): 16 µg/mL (≈ 11.5 µM)
[1]; [6]
  MIC Enterococcus faecalis (GC 4553): 16 µg/mL (≈ 11.5 µM)
[1]; [7]
  MIC Enterococcus faecalis (GC 4554): 32 µg/mL (≈ 23 µM)
[1]; Enterococcus faecium (GC 2243)
  MIC Enterococcus faecium (GC 2243): 16 µg/mL (≈ 11.5 µM)
[1]; Enterococcus faecium (GC 4556)
  MIC Enterococcus faecium (GC 4556): 16 µg/mL (≈ 11.5 µM)
[1]; Enterococcus faecium (GC 4557)
  MIC Enterococcus faecium (GC 4557): 4 µg/mL (≈ 2.87 µM)
[1]; strain ATCC 29212
  MIC Enterococcus faecalis (ATCC 29212): 16 µg/mL (≈ 11.5 µM)
[1]
  MIC Enterococcus faecalis (GC 2242): 16 µg/mL (≈ 11.5 µM)
  MIC Enterococcus faecalis (GC 4552): 16 µg/mL (≈ 11.5 µM)
[1]; strain GC 2243
  MIC Enterococcus faecium (GC 2243): 16 µg/mL (≈ 11.5 µM)
[1]; strain GC 4553
  MIC Enterococcus faecalis (GC 4553): 16 µg/mL (≈ 11.5 µM)
[1]; strain GC 4554
  MIC Enterococcus faecalis (GC 4554): 32 µg/mL (≈ 23 µM)
[1]; strain GC 4556
  MIC Enterococcus faecium (GC 4556): 16 µg/mL (≈ 11.5 µM)
[1]; strain GC 4557
  MIC Enterococcus faecium (GC 4557): 4 µg/mL (≈ 2.87 µM)
[1]; strain GC 4558
  MIC Enterococcus avium (GC 4558): 16 µg/mL (≈ 11.5 µM)
[2]
  MIC Escherichia coli (ATCC 25922): >64 µg/mL
  MIC Escherichia coli (GC 4559): >64 µg/mL
  MIC Escherichia coli (GC 4560): 2 µg/mL (≈ 1.44 µM)
[3]
  MIC Coagulase Negative Staphylococcus (GC 4547): 2 µg/mL (≈ 1.44 µM)
  MIC Coagulase Negative Staphylococcus (GC 4548): 2 µg/mL (≈ 1.44 µM)
  MIC Coagulase Negative Staphylococcus (GC 4549): 2 µg/mL (≈ 1.44 µM)
  MIC Coagulase Negative Staphylococcus (GC 4551): 4 µg/mL (≈ 2.87 µM)
  MIC Staphylococcus aureus (ATCC 29213): 4 µg/mL (≈ 2.87 µM)
  MIC Staphylococcus aureus (GC 1131): 4 µg/mL (≈ 2.87 µM)
  MIC Staphylococcus aureus (GC 4541): 4 µg/mL (≈ 2.87 µM)
  MIC Staphylococcus aureus (GC 4542): 4 µg/mL (≈ 2.87 µM)
  MIC Staphylococcus aureus (GC 4544): 4 µg/mL (≈ 2.87 µM)
  MIC Staphylococcus aureus (GC 4545): 4 µg/mL (≈ 2.87 µM)
  MIC Staphylococcus aureus-SMITH (GC 4543): 4 µg/mL (≈ 2.87 µM)
  MIC Staphylococcus haemolyticus (GC 4546): 2 µg/mL (≈ 1.44 µM)
[3]; strain ATCC 29213
  MIC Staphylococcus aureus (ATCC 29213): 4 µg/mL (≈ 2.87 µM)
[3]; strain GC 1131
  MIC Staphylococcus aureus (GC 1131): 4 µg/mL (≈ 2.87 µM)
[3]; strain GC 4541
  MIC Staphylococcus aureus (GC 4541): 4 µg/mL (≈ 2.87 µM)
[3]; strain GC 4542
  MIC Staphylococcus aureus (GC 4542): 4 µg/mL (≈ 2.87 µM)
[3]; strain GC 4544
  MIC Staphylococcus aureus (GC 4544): 4 µg/mL (≈ 2.87 µM)
[3]; strain GC 4545
  MIC Staphylococcus aureus (GC 4545): 4 µg/mL (≈ 2.87 µM)
[3]; strain GC 4546
  MIC Staphylococcus haemolyticus (GC 4546): 2 µg/mL (≈ 1.44 µM)
[3]; strain GC 4547
  MIC Coagulase Negative Staphylococcus (GC 4547): 2 µg/mL (≈ 1.44 µM)
[3]; strain GC 4548
  MIC Coagulase Negative Staphylococcus (GC 4548): 2 µg/mL (≈ 1.44 µM)
[3]; strain GC 4549
  MIC Coagulase Negative Staphylococcus (GC 4549): 2 µg/mL (≈ 1.44 µM)
[3]; strain GC 4551
  MIC Coagulase Negative Staphylococcus (GC 4551): 4 µg/mL (≈ 2.87 µM)
[3]; strain SMITH GC 4543
  MIC Staphylococcus aureus-SMITH (GC 4543): 4 µg/mL (≈ 2.87 µM)
[4]
  MIC Streptococcus agalactiae (GC 4564): 1 µg/mL (≈ 0.718 µM)
  MIC Streptococcus pyogenes (ID-3187): 1 µg/mL (≈ 0.718 µM)

## CC(C)CC(=O)OC1C(O)C(CO)OC(OC2C(CO)OC(Oc3ccc(CC4NC(=O)C(C(C)c5cccs5)NC(=O)CNC(=O)C(CO)NC(=O)C(C(O)C5CNC(=N)N5C5OC(CO)C(O)C(O)C5O)NC(=O)C(C(O)C5CNC(=N)N5)NC4=O)cc3)C(O)C2O)C1O (stereo not drawn) [Example 265b, Cyclo[3-(2-thienyl)-2-aminobutanoyl-O-[4-O-[3-O-(3-methylbutanoyl)hexopyranosyl]hexoipyranosyl]tyrosyl-3-(2-iminoimidazolidin-4-yl)seryl-3-(3-hexolpyranosyl-2-iminoimidazolidin-4-yl)serylserylglycyl]]
[1]; Enterococcus avium (GC 4558)
  MIC Enterococcus avium (GC 4558): 64 µg/mL (≈ 46.2 µM)
[1]; [5]
  MIC Enterococcus faecalis (ATCC 29212): 64 µg/mL (≈ 46.2 µM)
[1]; [6]
  MIC Enterococcus faecalis (GC 4553): 64 µg/mL (≈ 46.2 µM)
[1]; [7]
  MIC Enterococcus faecalis (GC 4554): >64 µg/mL
[1]; Enterococcus faecium (GC 2243)
  MIC Enterococcus faecium (GC 2243): 64 µg/mL (≈ 46.2 µM)
[1]; Enterococcus faecium (GC 4556)
  MIC Enterococcus faecium (GC 4556): 64 µg/mL (≈ 46.2 µM)
[1]; Enterococcus faecium (GC 4557)
  MIC Enterococcus faecium (GC 4557): 8 µg/mL (≈ 5.77 µM)
[1]; strain ATCC 29212
  MIC Enterococcus faecalis (ATCC 29212): 64 µg/mL (≈ 46.2 µM)
[1]
  MIC Enterococcus faecalis (GC 2242): 64 µg/mL (≈ 46.2 µM)
  MIC Enterococcus faecalis (GC 4552): 64 µg/mL (≈ 46.2 µM)
[1]; strain GC 2243
  MIC Enterococcus faecium (GC 2243): 64 µg/mL (≈ 46.2 µM)
[1]; strain GC 4553
  MIC Enterococcus faecalis (GC 4553): 64 µg/mL (≈ 46.2 µM)
[1]; strain GC 4554
  MIC Enterococcus faecalis (GC 4554): >64 µg/mL
[1]; strain GC 4556
  MIC Enterococcus faecium (GC 4556): 64 µg/mL (≈ 46.2 µM)
[1]; strain GC 4557
  MIC Enterococcus faecium (GC 4557): 8 µg/mL (≈ 5.77 µM)
[1]; strain GC 4558
  MIC Enterococcus avium (GC 4558): 64 µg/mL (≈ 46.2 µM)
[2]
  MIC Escherichia coli (ATCC 25922): >64 µg/mL
  MIC Escherichia coli (GC 4559): 64 µg/mL (≈ 46.2 µM)
  MIC Escherichia coli (GC 4560): 4 µg/mL (≈ 2.89 µM)
[3]
  MIC Coagulase Negative Staphylococcus (GC 4547): 8 µg/mL (≈ 5.77 µM)
  MIC Coagulase Negative Staphylococcus (GC 4548): 4 µg/mL (≈ 2.89 µM)
  MIC Coagulase Negative Staphylococcus (GC 4549): 4 µg/mL (≈ 2.89 µM)
  MIC Coagulase Negative Staphylococcus (GC 4551): 8 µg/mL (≈ 5.77 µM)
  MIC Staphylococcus aureus (ATCC 29213): 16 µg/mL (≈ 11.5 µM)
  MIC Staphylococcus aureus (GC 1131): 32 µg/mL (≈ 23.1 µM)
  MIC Staphylococcus aureus (GC 4541): 8 µg/mL (≈ 5.77 µM)
  MIC Staphylococcus aureus (GC 4542): 8 µg/mL (≈ 5.77 µM)
  MIC Staphylococcus aureus (GC 4544): 8 µg/mL (≈ 5.77 µM)
  MIC Staphylococcus aureus (GC 4545): 8 µg/mL (≈ 5.77 µM)
  MIC Staphylococcus aureus-SMITH (GC 4543): 8 µg/mL (≈ 5.77 µM)
  MIC Staphylococcus haemolyticus (GC 4546): 8 µg/mL (≈ 5.77 µM)
[3]; strain ATCC 29213
  MIC Staphylococcus aureus (ATCC 29213): 16 µg/mL (≈ 11.5 µM)
[3]; strain GC 1131
  MIC Staphylococcus aureus (GC 1131): 32 µg/mL (≈ 23.1 µM)
[3]; strain GC 4541
  MIC Staphylococcus aureus (GC 4541): 8 µg/mL (≈ 5.77 µM)
[3]; strain GC 4542
  MIC Staphylococcus aureus (GC 4542): 8 µg/mL (≈ 5.77 µM)
[3]; strain GC 4544
  MIC Staphylococcus aureus (GC 4544): 8 µg/mL (≈ 5.77 µM)
[3]; strain GC 4545
  MIC Staphylococcus aureus (GC 4545): 8 µg/mL (≈ 5.77 µM)
[3]; strain GC 4546
  MIC Staphylococcus haemolyticus (GC 4546): 8 µg/mL (≈ 5.77 µM)
[3]; strain GC 4547
  MIC Coagulase Negative Staphylococcus (GC 4547): 8 µg/mL (≈ 5.77 µM)
[3]; strain GC 4548
  MIC Coagulase Negative Staphylococcus (GC 4548): 4 µg/mL (≈ 2.89 µM)
[3]; strain GC 4549
  MIC Coagulase Negative Staphylococcus (GC 4549): 4 µg/mL (≈ 2.89 µM)
[3]; strain GC 4551
  MIC Coagulase Negative Staphylococcus (GC 4551): 8 µg/mL (≈ 5.77 µM)
[3]; strain SMITH GC 4543
  MIC Staphylococcus aureus-SMITH (GC 4543): 8 µg/mL (≈ 5.77 µM)
[4]
  MIC Streptococcus agalactiae (GC 4564): 8 µg/mL (≈ 5.77 µM)
  MIC Streptococcus pyogenes (ID-3187): 4 µg/mL (≈ 2.89 µM)
